The target in experiment [1] is T1, STING (Homo sapiens, UniProt Q86WV6). The experiment is described as follows: Western Blot analysis for S1 STING ligand antagonism in primary human skin fibroblasts. The class given is cell-based. On the set-up: host or cells: HFF-1 human foreskin fibroblasts. To be noted: 5 µM; 2 h or 1 h before, simultaneously with, or 15 minutes after 0.3 µM diABZI. As to the method:
To assess whether S1 STING ligands inhibit STING activation, primary human skin fibroblasts (Figure 5) or HFF-1 cells (Figure 6) were treated with various compounds which comprise only an S1 ligand domain and a Linker domain before undergoing Western Blot analysis as described below. Compounds A9, A11, A26 and A30 used in the following experiments share a common S1 ligand, which is also shared by Example compounds 1, 3, 5-29, 33-38.
Cells were incubated with A9 or A11 for 1 or 2 hours before addition of diABZI c3, treated with test compound and diABZI c3 simultaneously, or treated with A9 or A11 after 15 minutes incubation with diABZI c3. As a control, cells were also treated with diABZI c3 alone.
For orientation: Immunoblotting shows a protein as a band on a membrane.

Experiment [2] has as its target T1, STING. The experiment is described as follows: Inhibition of STING-agonist-induced IFN-β and CXCL10 release by Compounds A9 and A11. The class given is cell-based. More on the design: host or cells: HFF-1 human foreskin fibroblasts. To be noted: 1 to 2 hours prior to, simultaneously with, or 15 minutes after diABZI c3. As to the method: HFF-1 cells were also assessed for inhibition of STING-agonist-induced IFN-β and CXCL10 release in cells treated with Compounds A9 and A11. […] In contrast, pre-treating cells for 1 to 2 hours prior to diABZI c3, simultaneous treatment with A9 and diABZI c3, or pre-treating cells for 15 minutes with diABZI c3 followed by A9 treatment led to a decrease in the IFN media concentration to ~100 U/mL. […] In contrast, cells pre-treated for 1 to 2 hours prior to diABZI c3, simultaneous treatment with A9 and diABZI c3, or pre-treating cells for 15 minutes with diABZI c3 followed by A9 treatment led to a decrease in the CXCL10 media concentration to […] (Figure 9B, unfiled bars).
In contrast, pre-treating cells for 1 to 2 hours prior to diABZI c3, simultaneous treatment with A11 and diABZI c3, or pre-treating cells for 15 minutes with diABZI c3 followed by A11 treatment led to a decrease in the IFN media concentration to -10 - 20 U/mL. […] In contrast, cells pre-treated for 1 to 2 hours prior to diABZI c3, simultaneous treatment with A11 and diABZI c3, or pre-treating cells for 15 minutes with diABZI c3 followed by A11 treatment led to a decrease in the CXCL10 media concentration to -10 - 20 pg/mL (Figure 9B; filled bars).

T1 sequence (Q86WV6 whole entry, the tested form may be a part): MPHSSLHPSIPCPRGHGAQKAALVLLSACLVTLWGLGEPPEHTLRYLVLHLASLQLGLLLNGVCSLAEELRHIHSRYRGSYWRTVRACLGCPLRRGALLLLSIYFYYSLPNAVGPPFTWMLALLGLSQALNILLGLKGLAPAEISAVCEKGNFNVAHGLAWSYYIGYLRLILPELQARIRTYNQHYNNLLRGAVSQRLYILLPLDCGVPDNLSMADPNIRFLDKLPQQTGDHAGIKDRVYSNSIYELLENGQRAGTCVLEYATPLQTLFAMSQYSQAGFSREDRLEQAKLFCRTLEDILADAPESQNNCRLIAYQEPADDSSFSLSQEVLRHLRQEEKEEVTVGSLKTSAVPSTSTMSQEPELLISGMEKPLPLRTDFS

Consider `CCn1nc(C)cc1C(=O)N=c1n(C)c2cc(C(N)=O)ccc2n1CCC(CCn1c(=NC(=O)c2cc(C)nn2CC)n(C)c2cc(C(N)=O)ccc21)OCC(=O)N1CCc2cc(OC)ccc2C1` (centres unmarked) [Example A9, 1-(5-{5-Carbamoyl-2-[(1-ethyl-3-methyl-5-pyrazolyl)carbonylimino]-3-methyl-2,3-dihydro-1H-1,3-benzimidazol-1-yl}-3-[2-(6-methoxy-1,2,3,4-tetrahydro-2-isoquinolyl)-2-oxoethoxy]pentyl)-2-[(1-ethyl-3-methyl-5-pyrazolyl)carbonylimino]-3-methyl-2,3-dihydro-1H-1,3-benzimidazole-5-carboxamide], for which, on STING [1], the LC3B lipidation result is recorded as “reduced LC3B lipidation”, the “P-STING intensity (activation of STING)” value is reported as “reduced intensity of P-STING” and the P-TBK1 intensity entry is recorded as “reduced P-TBK1 intensity”. For the same molecule, at STING [2] (5 µM), the IFN media concentration is given as ~ 100 U/mL. Further, the CXCL10 media concentration at STING [2] (A9 5 µM) is ~ 30 U/mL.

For the origin of these results see patent EP4663632A1, “COMPOUNDS USEFUL FOR THE MODULATION OF THE ACTIVITY OF STING” (Sulis Therapeutics ApS, priority 2024, dated 2025).
